Laboratory results as given in EP4467141A1, “PYRAZOLO-QUINOLINES AS SELECTIVE INHIBITORS OF GENOTOXIC STRESS-INDUCED IKK/NF- KB PATHWAYS FOR CANCER THERAPY” (Max-Delbrück-Centrum für Molekulare Medizin in der …, priority 2023, dated 2024).

Legend:
Assay in all cases: Kinase panel study
Assay type in all cases: biochemical
Conditions in all cases: read-out: Percentage of inhibition; for inhibition at 1 µM: 1000nM; for inhibition at 10 µM: 10000nM
ABL1 = target: T1, ABL1 (Homo sapiens, UniProt P00519)
T1 construct: purchased Thermo Fisher Scientific
T1 sequence (P00519 whole entry): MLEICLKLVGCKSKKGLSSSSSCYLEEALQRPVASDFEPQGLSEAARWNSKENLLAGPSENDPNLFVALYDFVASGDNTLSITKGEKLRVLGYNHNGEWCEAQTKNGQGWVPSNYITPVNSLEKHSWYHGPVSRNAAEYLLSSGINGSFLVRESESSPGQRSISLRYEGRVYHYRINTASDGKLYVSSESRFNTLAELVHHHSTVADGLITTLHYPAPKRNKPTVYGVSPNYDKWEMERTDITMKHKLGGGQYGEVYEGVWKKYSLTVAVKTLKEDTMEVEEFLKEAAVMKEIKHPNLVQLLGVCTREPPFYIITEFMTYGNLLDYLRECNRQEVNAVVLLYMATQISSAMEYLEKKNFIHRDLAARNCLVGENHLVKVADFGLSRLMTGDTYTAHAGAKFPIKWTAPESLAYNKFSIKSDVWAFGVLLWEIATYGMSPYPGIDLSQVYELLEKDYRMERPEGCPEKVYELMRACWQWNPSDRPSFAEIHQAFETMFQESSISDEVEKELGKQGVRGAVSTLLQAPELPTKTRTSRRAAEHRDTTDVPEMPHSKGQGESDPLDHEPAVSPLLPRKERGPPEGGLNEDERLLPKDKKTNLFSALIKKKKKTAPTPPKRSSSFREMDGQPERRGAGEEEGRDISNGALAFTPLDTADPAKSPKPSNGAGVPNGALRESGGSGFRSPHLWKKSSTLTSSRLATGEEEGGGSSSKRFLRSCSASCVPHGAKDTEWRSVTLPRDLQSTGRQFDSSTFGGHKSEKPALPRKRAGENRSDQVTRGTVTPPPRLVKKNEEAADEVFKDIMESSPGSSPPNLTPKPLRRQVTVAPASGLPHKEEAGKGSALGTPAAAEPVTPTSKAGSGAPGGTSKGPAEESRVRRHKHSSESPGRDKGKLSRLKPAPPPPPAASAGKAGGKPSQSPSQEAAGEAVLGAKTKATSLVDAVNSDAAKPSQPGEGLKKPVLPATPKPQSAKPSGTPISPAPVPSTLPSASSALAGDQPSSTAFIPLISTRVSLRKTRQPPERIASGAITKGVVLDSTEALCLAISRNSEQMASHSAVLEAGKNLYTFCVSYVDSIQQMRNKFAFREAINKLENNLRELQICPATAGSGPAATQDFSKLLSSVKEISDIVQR
In short: (§1)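 Single-point inhibition data at 10 µM or 1 µM compound are shown. They were generated in ZLyte- or Adapta-format biochemical assays performed externally under standard conditions.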

CAMK2A (CaMKII alpha) = target: T2, CAMK2A (CaMKII alpha) (Homo sapiens, UniProt Q9UQM7)
T2 construct: purchased Thermo Fisher Scientific
In short: as §1

CDC42 BPB (MRCKB) = target: T3, CDC42 BPB (MRCKB) (Homo sapiens, UniProt Q9Y5S2)
T3 construct: purchased Thermo Fisher Scientific
T3 sequence (Q9Y5S2 whole entry): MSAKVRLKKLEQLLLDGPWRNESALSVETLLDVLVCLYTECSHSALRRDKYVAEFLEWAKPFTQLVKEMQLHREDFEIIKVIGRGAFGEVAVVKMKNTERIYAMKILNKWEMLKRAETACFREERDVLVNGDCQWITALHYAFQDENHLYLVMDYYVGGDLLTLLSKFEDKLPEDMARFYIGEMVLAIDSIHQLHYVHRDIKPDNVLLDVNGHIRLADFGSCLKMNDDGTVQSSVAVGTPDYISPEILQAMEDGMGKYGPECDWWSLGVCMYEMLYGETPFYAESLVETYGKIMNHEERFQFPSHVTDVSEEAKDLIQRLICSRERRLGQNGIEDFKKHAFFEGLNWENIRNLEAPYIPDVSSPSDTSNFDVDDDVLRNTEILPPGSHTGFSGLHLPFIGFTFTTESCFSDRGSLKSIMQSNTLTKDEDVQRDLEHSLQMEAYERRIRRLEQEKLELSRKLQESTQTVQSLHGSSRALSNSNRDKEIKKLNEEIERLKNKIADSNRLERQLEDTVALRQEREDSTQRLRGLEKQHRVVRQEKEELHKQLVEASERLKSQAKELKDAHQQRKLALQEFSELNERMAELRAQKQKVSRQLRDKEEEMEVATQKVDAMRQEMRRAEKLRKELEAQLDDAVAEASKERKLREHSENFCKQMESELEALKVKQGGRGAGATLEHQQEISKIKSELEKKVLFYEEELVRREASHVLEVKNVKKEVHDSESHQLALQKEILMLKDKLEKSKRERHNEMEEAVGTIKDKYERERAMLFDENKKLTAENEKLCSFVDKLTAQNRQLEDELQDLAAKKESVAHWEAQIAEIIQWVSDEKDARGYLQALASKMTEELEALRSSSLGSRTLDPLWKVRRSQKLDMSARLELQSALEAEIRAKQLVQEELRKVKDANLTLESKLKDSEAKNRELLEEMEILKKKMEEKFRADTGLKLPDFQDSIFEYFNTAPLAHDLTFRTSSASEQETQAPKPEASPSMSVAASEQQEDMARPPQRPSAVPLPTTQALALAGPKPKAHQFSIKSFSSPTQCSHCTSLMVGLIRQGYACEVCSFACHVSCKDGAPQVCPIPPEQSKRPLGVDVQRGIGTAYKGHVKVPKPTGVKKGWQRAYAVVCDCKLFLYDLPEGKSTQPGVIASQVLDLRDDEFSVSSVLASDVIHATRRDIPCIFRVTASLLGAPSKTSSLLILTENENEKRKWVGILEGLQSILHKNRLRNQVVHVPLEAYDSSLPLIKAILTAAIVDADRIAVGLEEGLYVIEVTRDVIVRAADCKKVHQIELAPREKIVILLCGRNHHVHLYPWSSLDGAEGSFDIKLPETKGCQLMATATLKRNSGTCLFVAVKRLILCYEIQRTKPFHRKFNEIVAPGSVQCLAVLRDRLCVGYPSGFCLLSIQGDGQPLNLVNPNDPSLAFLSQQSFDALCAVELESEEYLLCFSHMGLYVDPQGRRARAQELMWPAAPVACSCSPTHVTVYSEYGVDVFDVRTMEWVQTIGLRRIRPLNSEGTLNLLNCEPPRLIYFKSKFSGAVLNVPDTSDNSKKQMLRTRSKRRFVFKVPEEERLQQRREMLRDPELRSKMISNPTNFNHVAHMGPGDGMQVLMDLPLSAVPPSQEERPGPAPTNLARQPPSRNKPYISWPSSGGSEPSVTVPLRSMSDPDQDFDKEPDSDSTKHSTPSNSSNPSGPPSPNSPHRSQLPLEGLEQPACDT
In short: as §1

MAPK1 (ERK2) = target: T4, MAPK1 (ERK2) (Homo sapiens, UniProt P28482)
T4 construct: purchased Thermo Fisher Scientific
T4 sequence (P28482 whole entry): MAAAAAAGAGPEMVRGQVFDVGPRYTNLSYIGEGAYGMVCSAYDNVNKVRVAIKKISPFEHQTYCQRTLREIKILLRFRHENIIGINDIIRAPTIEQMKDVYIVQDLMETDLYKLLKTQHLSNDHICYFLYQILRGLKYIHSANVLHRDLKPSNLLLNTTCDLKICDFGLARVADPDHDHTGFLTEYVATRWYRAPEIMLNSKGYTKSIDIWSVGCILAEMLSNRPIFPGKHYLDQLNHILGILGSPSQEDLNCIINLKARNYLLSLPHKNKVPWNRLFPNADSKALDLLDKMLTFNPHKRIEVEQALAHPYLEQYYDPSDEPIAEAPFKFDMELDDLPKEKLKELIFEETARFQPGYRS
In short: as §1

MAPK12 (p38 gamma) = target: T5, MAPK12 (p38 gamma) (Homo sapiens, UniProt P53778)
T5 construct: purchased Thermo Fisher Scientific
T5 sequence (P53778 1-367): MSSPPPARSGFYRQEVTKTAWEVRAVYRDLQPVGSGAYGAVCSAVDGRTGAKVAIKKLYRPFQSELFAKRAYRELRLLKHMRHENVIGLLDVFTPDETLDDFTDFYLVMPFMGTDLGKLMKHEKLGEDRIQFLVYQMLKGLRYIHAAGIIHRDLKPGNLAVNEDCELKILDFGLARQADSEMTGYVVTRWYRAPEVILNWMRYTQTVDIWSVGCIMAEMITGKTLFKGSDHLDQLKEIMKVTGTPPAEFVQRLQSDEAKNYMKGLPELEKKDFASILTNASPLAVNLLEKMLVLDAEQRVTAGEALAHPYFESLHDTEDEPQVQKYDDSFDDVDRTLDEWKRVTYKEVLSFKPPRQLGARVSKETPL
In short: as §1

PAK2 (PAK65) = target: T6, PAK2 (PAK65) (Homo sapiens, UniProt Q13177)
T6 construct: purchased Thermo Fisher Scientific
T6 sequence (Q13177 whole entry): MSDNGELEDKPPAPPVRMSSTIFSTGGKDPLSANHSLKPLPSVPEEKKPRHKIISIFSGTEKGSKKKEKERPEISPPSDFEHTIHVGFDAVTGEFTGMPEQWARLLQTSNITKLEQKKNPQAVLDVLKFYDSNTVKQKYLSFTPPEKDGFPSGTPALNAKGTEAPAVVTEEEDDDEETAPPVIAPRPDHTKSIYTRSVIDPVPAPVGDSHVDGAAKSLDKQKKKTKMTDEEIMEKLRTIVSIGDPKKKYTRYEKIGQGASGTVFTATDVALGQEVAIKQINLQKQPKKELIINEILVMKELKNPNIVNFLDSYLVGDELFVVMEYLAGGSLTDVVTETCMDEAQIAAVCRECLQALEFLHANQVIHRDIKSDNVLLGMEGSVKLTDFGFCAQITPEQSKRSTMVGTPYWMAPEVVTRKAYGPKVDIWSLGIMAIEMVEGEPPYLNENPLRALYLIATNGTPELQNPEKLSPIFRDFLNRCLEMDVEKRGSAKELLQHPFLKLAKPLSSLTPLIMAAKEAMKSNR
In short: as §1

PRKCE (PKC epsilon) = target: T7, PRKCE (PKC epsilon) (Homo sapiens, UniProt Q02156)
T7 construct: purchased Thermo Fisher Scientific
T7 sequence (Q02156 1-737): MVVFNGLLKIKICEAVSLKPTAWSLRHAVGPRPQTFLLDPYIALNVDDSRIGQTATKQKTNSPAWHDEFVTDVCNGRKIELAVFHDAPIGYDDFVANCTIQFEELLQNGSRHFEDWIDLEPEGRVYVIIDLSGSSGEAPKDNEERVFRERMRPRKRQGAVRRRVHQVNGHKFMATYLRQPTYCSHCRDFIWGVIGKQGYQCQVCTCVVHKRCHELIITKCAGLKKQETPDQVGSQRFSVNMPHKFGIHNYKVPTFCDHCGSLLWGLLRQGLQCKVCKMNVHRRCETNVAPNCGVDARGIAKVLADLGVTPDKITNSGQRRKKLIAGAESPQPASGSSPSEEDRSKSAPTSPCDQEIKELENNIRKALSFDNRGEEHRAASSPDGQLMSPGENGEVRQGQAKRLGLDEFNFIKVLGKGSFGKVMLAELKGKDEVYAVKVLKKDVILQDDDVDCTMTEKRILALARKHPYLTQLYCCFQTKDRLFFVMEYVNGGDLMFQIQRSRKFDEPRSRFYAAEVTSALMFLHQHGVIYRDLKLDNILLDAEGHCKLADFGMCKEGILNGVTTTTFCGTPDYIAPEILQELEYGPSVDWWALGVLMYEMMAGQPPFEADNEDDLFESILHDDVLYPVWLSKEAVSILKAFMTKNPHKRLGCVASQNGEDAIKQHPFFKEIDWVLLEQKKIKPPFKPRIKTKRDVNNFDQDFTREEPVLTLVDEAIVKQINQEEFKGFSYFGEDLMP
In short: as §1

PRKCI (PKC iota) = target: T8, PRKCI (PKC iota) (Homo sapiens, UniProt P41743)
T8 construct: purchased Thermo Fisher Scientific
T8 sequence (P41743 1-596): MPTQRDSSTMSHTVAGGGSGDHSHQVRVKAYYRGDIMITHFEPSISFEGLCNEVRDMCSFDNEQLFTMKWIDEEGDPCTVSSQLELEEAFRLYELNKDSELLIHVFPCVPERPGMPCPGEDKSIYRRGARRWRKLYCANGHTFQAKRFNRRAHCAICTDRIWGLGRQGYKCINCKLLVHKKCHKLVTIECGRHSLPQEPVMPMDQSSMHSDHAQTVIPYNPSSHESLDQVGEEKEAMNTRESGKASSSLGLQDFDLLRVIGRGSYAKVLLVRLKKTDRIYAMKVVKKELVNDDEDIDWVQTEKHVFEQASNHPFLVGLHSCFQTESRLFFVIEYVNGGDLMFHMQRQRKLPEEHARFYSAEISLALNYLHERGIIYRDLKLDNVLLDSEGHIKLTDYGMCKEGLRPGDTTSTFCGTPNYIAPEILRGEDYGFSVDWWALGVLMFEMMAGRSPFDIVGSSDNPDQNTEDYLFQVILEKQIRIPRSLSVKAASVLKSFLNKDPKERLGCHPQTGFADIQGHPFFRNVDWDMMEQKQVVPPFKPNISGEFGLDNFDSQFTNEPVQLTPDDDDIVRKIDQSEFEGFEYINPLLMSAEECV
In short: as §1

## COc1ccc2c(c1OC)c(=O)n1c3ccc(O)cc3c3ccnc2c31 [MW01, 5-Hydroxy-10,11-dimethoxy-9H-benzo[c]indolo[3,2,1-ij][1,5]naphthyridin-9-one]
ABL1
  inhibition at 1 µM: 15%
  inhibition at 10 µM: 27%
CAMK2A (CaMKII alpha)
  inhibition at 1 µM: 12%
  inhibition at 10 µM: 39%
CDC42 BPB (MRCKB)
  inhibition at 1 µM: 0%
  inhibition at 10 µM: 5%
MAPK1 (ERK2)
  inhibition at 1 µM: 4%
  inhibition at 10 µM: 9%
MAPK12 (p38 gamma)
  inhibition at 1 µM: 8%
  inhibition at 10 µM: 11%
PAK2 (PAK65)
  inhibition at 1 µM: 14%
  inhibition at 10 µM: 7%
PRKCE (PKC epsilon)
  inhibition at 1 µM: 9%
  inhibition at 10 µM: 8%
PRKCI (PKC iota)
  inhibition at 1 µM: 4%
  inhibition at 10 µM: -8%

## COc1ccc2cc3c(N)nn(C(=O)c4cccc(N(C)C)c4)c3nc2c1 [MW05, (3-Amino-7-methoxypyrazolo[3,4-b]quinolin-1-yl)-[3-(dimethylamino)phenyl]methanone]
ABL1
  inhibition at 1 µM: 4%
  inhibition at 10 µM: 6%
CAMK2A (CaMKII alpha)
  inhibition at 1 µM: 9%
  inhibition at 10 µM: 16%
CDC42 BPB (MRCKB)
  inhibition at 1 µM: 5%
  inhibition at 10 µM: -6%
MAPK1 (ERK2)
  inhibition at 1 µM: 5%
  inhibition at 10 µM: 7%
MAPK12 (p38 gamma)
  inhibition at 1 µM: 4%
  inhibition at 10 µM: 4%
PAK2 (PAK65)
  inhibition at 1 µM: 14%
  inhibition at 10 µM: 4%
PRKCE (PKC epsilon)
  inhibition at 1 µM: 6%
  inhibition at 10 µM: -12%
PRKCI (PKC iota)
  inhibition at 1 µM: 20%
  inhibition at 10 µM: 6%
